# Experimental data: patent US9023398B2, “Method for improving the aqueous solubility of poorly-soluble substances” (Kabushiki Kaisha Sangi, priority 2009, dated 2015)
# Where “and” joins values, the source holds several entries; their conditions need not be identical. Equal values may be shown once.
# Legend:
# [1] = Dissolution test of poorly-soluble substances using 2nd fluid for disintegration test (pH 6.8) of the Japanese Pharmacopoeia; type: physicochemical
# Experimental: From initiation of the test, the mixed solution was stirred with a stirrer having a length of 15 mm. The rotation number of the stirrer was 120 rpm, and all of the tests were conducted in a thermostat at 37±0.5° C. Two types of test solutions, namely, distilled water and 2nd fluid for disintegration test (pH 6.8) of the Japanese Pharmacopoeia were used. As such 2nd fluid for disintegration test of the Japanese Pharmacopoeia, a solution prepared by diluting the 10-fold concentration solution of Kanto Kagaku Co., Ltd. with distilled water was used.
# A comparative test was carried out in the same manner as that described above with the exception that a poorly-soluble substance or the like was used in an amount equal to that of a substance with improved aqueous solubility, instead of the substance with improved aqueous solubility.
# 1 mL of the solution was sampled in an Eppendorf centrifuge tube, 1, 3, 10, 30, 60, 180 and 360 minutes after initiation of the test. The thus sampled solution was centrifuged at 12,000 rpm for 5 minutes. […] In the case of the comparative test, the poorly-soluble substance or the like, which had not been dissolved in the solution, was removed. An aliquot of this supernatant was immediately frozen. The frozen sample was freeze-dried, and it was then used as a sample in the measurement of the amount of the substance with improved aqueous solubility, which had been dissolved in the test solution. The dissolved poorly-soluble substance was measured mainly using a dual wavelength absorption photometer.
# [2] = Dissolution test of poorly-soluble substances using distilled water; type: physicochemical; details: water
# [3] = 2nd fluid for disintegration test, elution time 10 min
# [4] = 2nd fluid for disintegration test, elution time 30 min
# [5] = 2nd fluid for disintegration test, elution time 120 min
# [6] = 2nd fluid for disintegration test, elution time 360 min
# [7] = 2nd fluid for disintegration test, elution time 3 min
structure (smiles),measurement,setting,value
"CC[C@H]1OC(=O)[C@H](C)[C@@H](O[C@H]2C[C@@](C)(OC)[C@@H](O)[C@H](C)O2)[C@H](C)[C@@H](O[C@@H]2O[C@H](C)C[C@H](N(C)C)[C@H]2O)[C@](C)(O)C[C@@H](C)C(=O)[C@H](C)[C@@H](O)[C@]1(C)O [compound 28, Erythromycin]",Dissolved amount,[1]; [3],4984.2 µg/mL
same,Dissolved amount,[1]; [4],5103.6 µg/mL
same,Dissolved amount,[1]; [5],5904.1 µg/mL
same,Dissolved amount,[1]; [6],6044.7 µg/mL
same,Dissolved amount,[2]; elution time 3 min,635.0 µg/mL
same,Dissolved amount,[2]; elution time 10 min,861.6 µg/mL
same,Dissolved amount,[2]; elution time 30 min,944.7 µg/mL
same,Dissolved amount,[2]; elution time 120 min,927.7 µg/mL
same,Dissolved amount,[2]; elution time 360 min,846.1 µg/mL
"COc1ccc2c(c1)c(CC(=O)O)c(C)n2C(=O)c1ccc(Cl)cc1 [compound 20, Indomethacin]",Dissolved amount,[1]; [7],627.9 µg/mL
same,Dissolved amount,[1]; [3],693.7 µg/mL
same,Dissolved amount,[1]; [4],821.8 µg/mL
same,Dissolved amount,[1]; [5],928.5 µg/mL
same,Dissolved amount,[1]; [6],1114.4 µg/mL
same,Dissolved amount,[2]; elution time 3 min,7.8 µg/mL
same,Dissolved amount,[2]; elution time 10 min,7.9 µg/mL
same,Dissolved amount,[2]; elution time 30 min,8.0 µg/mL
same,Dissolved amount,[2]; elution time 120 min,8.5 µg/mL
same,Dissolved amount,[2]; elution time 360 min,8.2 µg/mL
"CCCCCCC(=O)O[C@H]1CC[C@H]2[C@@H]3CCc4cc(O)ccc4[C@H]3CC[C@]12C [compound 44, Estradiol Enanthate]",Dissolved amount,"[1]; Estradiol Enanthate, 2nd fluid for disintegration test, elution time 3 min",7.9 µg/mL
same,Dissolved amount,"[1]; Estradiol Enanthate, 2nd fluid for disintegration test, elution time 30 min",7.0 µg/mL
same,Dissolved amount,"[1]; Estradiol Enanthate, 2nd fluid for disintegration test, elution time 120 min",19.0 µg/mL
same,Dissolved amount,"[1]; Estradiol Enanthate, 2nd fluid for disintegration test, elution time 360 min",10.9 µg/mL
same,Dissolved amount,"[2]; Estradiol Enanthate, elution time 3 min",1.6 µg/mL
same,Dissolved amount,"[2]; Estradiol Enanthate, elution time 10 min",1.4 µg/mL
same,Dissolved amount,"[2]; Estradiol Enanthate, elution time 30 min",1.8 µg/mL
same,Dissolved amount,"[2]; Estradiol Enanthate, elution time 120 min",1.6 µg/mL
same,Dissolved amount,"[2]; Estradiol Enanthate, elution time 360 min",1.3 µg/mL
"O=C1NC(=O)C(c2ccccc2)(c2ccccc2)N1 [compound 21, Phenyloin]",Dissolved amount,[1]; [7],17.4 µg/mL
same,Dissolved amount,[1]; [3],42.1 µg/mL
same,Dissolved amount,[1]; [4],50.7 µg/mL
same,Dissolved amount,[1]; [5],27.2 µg/mL
same,Dissolved amount,[1]; [6],32.5 µg/mL
same,Dissolved amount,[2]; elution time 3 min,26.5 µg/mL
same,Dissolved amount,[2]; elution time 10 min,23.3 µg/mL
same,Dissolved amount,[2]; elution time 360 min,24.1 µg/mL
"OCCN(CCO)c1nc(N2CCCCC2)c2nc(N(CCO)CCO)nc(N3CCCCC3)c2n1 [compound 31, Dipyridamole]",Dissolved amount,"[1]; Dipyridamole, 2nd fluid for disintegration test, elution time 3 min",6.5 µg/mL
same,Dissolved amount,"[1]; Dipyridamole, 2nd fluid for disintegration test, elution time 10 min",6.5 µg/mL
same,Dissolved amount,"[1]; Dipyridamole, 2nd fluid for disintegration test, elution time 30 min",8.3 µg/mL
same,Dissolved amount,"[1]; Dipyridamole, 2nd fluid for disintegration test, elution time 120 min",8.5 µg/mL
same,Dissolved amount,"[1]; Dipyridamole, 2nd fluid for disintegration test, elution time 360 min",9.2 µg/mL
same,Dissolved amount,[2]; elution time 3 min,7.8 µg/mL
same,Dissolved amount,[2]; elution time 10 min,7.9 µg/mL
same,Dissolved amount,[2]; elution time 30 min,8.0 µg/mL
same,Dissolved amount,[2]; elution time 120 min,8.5 µg/mL
same,Dissolved amount,[2]; elution time 360 min,8.2 µg/mL
"CCS(=O)(=O)CCn1c([N+](=O)[O-])cnc1C [compound 25, Tinidazole]",Dissolved amount,[1]; [7],4613.3 µg/mL
same,Dissolved amount,[1]; [3],5425.9 µg/mL
same,Dissolved amount,[1]; [4],5825.0 µg/mL
same,Dissolved amount,[1]; [5],7003.0 µg/mL
same,Dissolved amount,[1]; [6],6133.3 µg/mL
same,Dissolved amount,[2]; elution time 3 min,2973.2 µg/mL
same,Dissolved amount,[2]; elution time 10 min,3880.0 µg/mL
same,Dissolved amount,[2]; elution time 30 min,4558.1 µg/mL
same,Dissolved amount,[2]; elution time 120 min,6034.2 µg/mL
same,Dissolved amount,[2]; elution time 360 min,6207.6 µg/mL
"NC(=O)N1c2ccccc2C=Cc2ccccc21 [compound 22, Carbamazepine]",Dissolved amount,[1]; [7],346.6 µg/mL
same,Dissolved amount,[1]; [3],352.2 µg/mL
same,Dissolved amount,[1]; [4],413.9 µg/mL
same,Dissolved amount,[1]; [5],282.1 µg/mL
same,Dissolved amount,[1]; [6],199.3 µg/mL
same,Dissolved amount,[2]; elution time 3 min,291.2 µg/mL
same,Dissolved amount,[2]; elution time 10 min,234.8 µg/mL
same,Dissolved amount,[2]; elution time 30 min,214.3 µg/mL
same,Dissolved amount,[2]; elution time 120 min,159.5 µg/mL
same,Dissolved amount,[2]; elution time 360 min,153.0 µg/mL
"CNC[C@H](O)c1ccc(O)c(O)c1 [compound 29, Epinephrine]",Dissolved amount,[1],2001.7 µg/mL and 2061.7 µg/mL and 2129.3 µg/mL and 2102.5 µg/mL
